Experimental data reported in US20020065219A1, “Water soluble thiazolyl peptide derivatives” (priority 2000, published 2002).
Values after ≈ are worked out from the molar mass of the structure shown. Like-named read-outs stand apart in the source and are kept apart here.

Tests used:
Assay in all cases: MIC, broth micro dilution assay (NCCLS)
Format in all cases: cell-based
[1] = system: Staphylococcus aureus A15090; details: for MIC: Staphylococcus aureus, read-out: MIC (μg/mL) against Staphylococcus aureus A15090
[2] = system: Streptococcus pneumoniae A28272; details: for MIC: Streptococcus pneumoniae, read-out: MIC (μg/mL) against Streptococcus pneumoniae A28272
[3] = system: Enterococcus faecalis A20688; details: for MIC: Enterococcus faecalis, read-out: MIC (μg/mL) against Enterococcus faecalis A20688
[4] = Mueller-Hinton medium, 35° C., 18 hours
[5] = 50% Mueller-Hinton medium and 50% Todd Hewitt medium, 35° C., 18 hours

SMILES	MIC (μg/mL) against Staphylococcus aureus A15090 [1, 4] [µg/mL]	MIC (μg/mL) against Streptococcus pneumoniae A28272 [2, 5] [µg/mL]	MIC (μg/mL) against Enterococcus faecalis A20688 [3, 4] [µg/mL]	other results
CO/C(C)=C1/NC(=O)C(C(C)O)NC(=O)c2csc(n2)-c2cc(O)c(-c3nc(C(=O)NC(CNCCN(C)C)C(N)=O)cs3)nc2-c2csc(n2)C2COC(=O)c3c4c5c(cccc5n3O)COC(=O)C(O[C@H]3C[C@](C)(O)[C@H](N(C)C)[C@H](C)O3)C(OC4)C(NC(=O)c3csc1n3)c1nc(cs1)C(=O)N2 (stereo partly drawn) [Example 17]	2.0 (≈ 1.31 µM)	0.03 (≈ 0.0197 µM)	4.0 (≈ 2.62 µM)	
CO/C(C)=C1/NC(=O)C(C(C)O)NC(=O)c2csc(n2)-c2cc(O)c(-c3nc(C(=O)NC(CNCCOCCOCCO)C(N)=O)cs3)nc2-c2csc(n2)C2COC(=O)c3c4c5c(cccc5n3O)COC(=O)C(O[C@H]3C[C@](C)(O)[C@H](N(C)C)[C@H](C)O3)C(OC4)C(NC(=O)c3csc1n3)c1nc(cs1)C(=O)N2 (stereo partly drawn) [Example 55]				MIC (μg/mL) against Staphylococcus aureus A15090 [1]: 0.25 µg/mL (≈ 0.158 µM); MIC (μg/mL) against Streptococcus pneumoniae A28272 [2]: 0.06 µg/mL (≈ 0.0378 µM); MIC (μg/mL) against Enterococcus faecalis A20688 [3]: 0.5 µg/mL (≈ 0.315 µM)
CNC(=O)On1c2c3c4c(cccc41)COC(=O)C(OC1CC(C)(O)C(N(C)C)C(C)O1)C(OC3)C1NC(=O)c3csc(n3)C(=C(C)OC)NC(=O)C(C(C)O)NC(=O)c3csc(n3)-c3cc(O)c(-c4nc(C(=O)NC(CN(C)C(=O)NC)C(N)=O)cs4)nc3-c3csc(n3)C(COC2=O)NC(=O)c2csc1n2 (stereo not drawn) [Example 108]	0.125 (≈ 0.079 µM)	0.03 (≈ 0.019 µM)	0.5 (≈ 0.316 µM)	
COC(C)=C1NC(=O)C(C(C)O)NC(=O)c2csc(n2)-c2cc(O)c(-c3nc(C(=O)NC(CNC(CO)Cc4c[nH]cn4)C(N)=O)cs3)nc2-c2csc(n2)C2COC(=O)c3c4c5c(cccc5n3O)COC(=O)C(OC3CC(C)(O)C(N(C)C)C(C)O3)C(OC4)C(NC(=O)c3csc1n3)c1nc(cs1)C(=O)N2 (stereo not drawn) [Example 67]	2.0 (≈ 1.27 µM)	1.0 (≈ 0.633 µM)	8.0 (≈ 5.07 µM)	
CO/C(C)=C1/NC(=O)C(C(C)O)NC(=O)c2csc(n2)-c2cc(O)c(-c3nc(C(=O)NC(CN(C)CCc4ccccn4)C(N)=O)cs3)nc2-c2csc(n2)C2COC(=O)c3c4c5c(cccc5n3O)COC(=O)C(O[C@H]3C[C@](C)(O)[C@H](N(C)C)[C@H](C)O3)C(OC4)C(NC(=O)c3csc1n3)c1nc(cs1)C(=O)N2 (stereo partly drawn) [Example 20]	0.125 (≈ 0.0794 µM)	0.005 (≈ 0.00318 µM)	0.25 (≈ 0.159 µM)	
CO/C(C)=C1/NC(=O)C(C(C)O)NC(=O)c2csc(n2)-c2cc(O)c(-c3nc(C(=O)NC(CSCCS(=O)(=O)O)C(N)=O)cs3)nc2-c2csc(n2)C2COC(=O)c3c4c5c(cccc5n3O)COC(=O)C(O[C@H]3C[C@](C)(O)[C@H](N(C)C)[C@H](C)O3)C(OC4)C(NC(=O)c3csc1n3)c1nc(cs1)C(=O)N2 (stereo partly drawn) [Example 46]	4.0 (≈ 2.53 µM)	0.06 (≈ 0.038 µM)	128 (≈ 81 µM)	
CO/C(C)=C1/NC(=O)C(C(C)O)NC(=O)c2csc(n2)-c2cc(O)c(-c3nc(C(=O)NC(CSCCc4cnccn4)C(N)=O)cs3)nc2-c2csc(n2)C2COC(=O)c3c4c5c(cccc5n3O)COC(=O)C(O[C@H]3C[C@](C)(O)[C@H](N(C)C)[C@H](C)O3)C(OC4)C(NC(=O)c3csc1n3)c1nc(cs1)C(=O)N2 (stereo partly drawn) [Example 62]	0.125 (≈ 0.0792 µM)	0.015 (≈ 0.00951 µM)	0.25 (≈ 0.158 µM)	
CCN(CC)CCS(=O)(=O)CC(NC(=O)c1csc(-c2nc3c(cc2O)-c2nc(cs2)C(=O)NC(C(C)O)C(=O)N/C(=C(\C)OC)c2nc(cs2)C(=O)NC2c4nc(cs4)C(=O)NC(COC(=O)c4c5c6c(cccc6n4O)COC(=O)C(O[C@H]4C[C@](C)(O)C(N(C)C)[C@H](C)O4)C2OC5)c2nc-3cs2)n1)C(N)=O (stereo partly drawn) [Example 103]				MIC ([1]; A15090, 18 h): 0.06 µg/mL (≈ 0.0374 µM); MIC ([2]; A28272, 18 h): 0.007 µg/mL (≈ 0.00437 µM); MIC ([3]; A20688, 18 h): 0.03 µg/mL (≈ 0.0187 µM)
COC(C)=C1NC(=O)C(C(C)O)NC(=O)c2csc(n2)-c2cc(O)c(-c3nc(C(=O)NC(CSCC4NC(=O)NC4=O)C(N)=O)cs3)nc2-c2csc(n2)C2COC(=O)c3c4c5c(cccc5n3O)COC(=O)C(OC3CC(C)(O)C(N(C)C)C(C)O3)C(OC4)C(NC(=O)c3csc1n3)c1nc(cs1)C(=O)N2 (stereo not drawn) [Example 45]	4.0 (≈ 2.53 µM)	0.03 (≈ 0.0189 µM)	128 (≈ 80.8 µM)	
COC(C)=C1NC(=O)C(C(C)O)NC(=O)c2csc(n2)-c2cc(O)c(-c3nc(C(=O)NC(CN4CCC4CO)C(N)=O)cs3)nc2-c2csc(n2)C2COC(=O)c3c4c5c(cccc5n3O)COC(=O)C(OC3CC(C)(O)C(N(C)C)C(C)O3)C(OC4)C(NC(=O)c3csc1n3)c1nc(cs1)C(=O)N2 (stereo not drawn) [Example 84]				MIC (μg/mL) against Staphylococcus aureus A15090 [1]: 0.5 µg/mL (≈ 0.328 µM); MIC (μg/mL) against Streptococcus pneumoniae A28272 [2]: 0.125 µg/mL (≈ 0.082 µM); MIC (μg/mL) against Enterococcus faecalis A20688 [3]: 0.25 µg/mL (≈ 0.164 µM)
COC(C)=C1NC(=O)C(C(C)O)NC(=O)c2csc(n2)-c2cc(O)c(-c3nc(C(=O)NC(CN4CCC(O)C4)C(N)=O)cs3)nc2-c2csc(n2)C2COC(=O)c3c4c5c(cccc5n3O)COC(=O)C(OC3CC(C)(O)C(N(C)C)C(C)O3)C(OC4)C(NC(=O)c3csc1n3)c1nc(cs1)C(=O)N2 (stereo not drawn) [Example 37]	0.06 (≈ 0.0394 µM)	0.007 (≈ 0.00459 µM)	0.125 (≈ 0.082 µM)	
CO/C(C)=C1/NC(=O)C(C(C)O)NC(=O)c2csc(n2)-c2cc(O)c(-c3nc(C(=O)NC(CN4CCN(CCN5CCOCC5)CC4)C(N)=O)cs3)nc2-c2csc(n2)C2COC(=O)c3c4c5c(cccc5n3O)COC(=O)C(O[C@H]3C[C@](C)(O)[C@H](N(C)C)[C@H](C)O3)C(OC4)C(NC(=O)c3csc1n3)c1nc(cs1)C(=O)N2 (stereo partly drawn) [Example 53]				MIC (μg/mL) against Staphylococcus aureus A15090 [1]: 0.5 µg/mL (≈ 0.305 µM); MIC (μg/mL) against Streptococcus pneumoniae A28272 [2]: 0.5 µg/mL (≈ 0.305 µM); MIC (μg/mL) against Enterococcus faecalis A20688 [3]: 1.0 µg/mL (≈ 0.611 µM)
COC(C)=C1NC(=O)C(C(C)O)NC(=O)c2csc(n2)-c2cc(O)c(-c3nc(C(=O)NC(CN(C)C(=O)CCC(=O)O)C(N)=O)cs3)nc2-c2csc(n2)C2COC(=O)c3c4c5c(cccc5n3O)COC(=O)C(OC3CC(C)(O)C(N(C)C)C(C)O3)C(OC4)C(NC(=O)c3csc1n3)c1nc(cs1)C(=O)N2 (stereo not drawn) [Example 106]	4.0 (≈ 2.55 µM)	8.0 (≈ 5.1 µM)	32 (≈ 20.4 µM)	
CO/C(C)=C1/NC(=O)C(C(C)O)NC(=O)c2csc(n2)-c2cc(O)c(-c3nc(C(=O)NC(CNCCN(CCN)CCN)C(N)=O)cs3)nc2-c2csc(n2)C2COC(=O)c3c4c5c(cccc5n3O)COC(=O)C(O[C@H]3C[C@](C)(O)[C@H](N(C)C)[C@H](C)O3)C(OC4)C(NC(=O)c3csc1n3)c1nc(cs1)C(=O)N2 (stereo partly drawn) [Example 12]	2.0 (≈ 1.26 µM)	0.5 (≈ 0.316 µM)	4.0 (≈ 2.53 µM)	
COCC1CCCN1CC(NC(=O)c1csc(-c2nc3c(cc2O)-c2nc(cs2)C(=O)NC(C(C)O)C(=O)NC(=C(C)OC)c2nc(cs2)C(=O)NC2c4nc(cs4)C(=O)NC(COC(=O)c4c5c6c(cccc6n4O)COC(=O)C(O)C2OC5)c2nc-3cs2)n1)C(N)=O (stereo not drawn) [Example 98]	0.03 (≈ 0.0217 µM)	0.003 (≈ 0.00217 µM)	0.5 (≈ 0.362 µM)	
COC(C)=C1NC(=O)C(C(C)O)NC(=O)c2csc(n2)-c2cc(O)c(-c3nc(C(=O)NC(CN(C)CCCn4ccnc4)C(N)=O)cs3)nc2-c2csc(n2)C2COC(=O)c3c4c5c(cccc5n3O)COC(=O)C(O)C(OC4)C(NC(=O)c3csc1n3)c1nc(cs1)C(=O)N2 (stereo not drawn) [Example 97]	0.125 (≈ 0.0889 µM)	0.125 (≈ 0.0889 µM)	0.25 (≈ 0.178 µM)	
CO/C(C)=C1/NC(=O)C(C(C)O)NC(=O)c2csc(n2)-c2cc(O)c(-c3nc(C(=O)NC(CN4CCC[C@H]4CN4CCCC4)C(N)=O)cs3)nc2-c2csc(n2)C2COC(=O)c3c4c5c(cccc5n3O)COC(=O)C(O[C@H]3C[C@](C)(O)[C@H](N(C)C)[C@H](C)O3)C(OC4)C(NC(=O)c3csc1n3)c1nc(cs1)C(=O)N2 (stereo partly drawn) [Example 65]				MIC (μg/mL) against Staphylococcus aureus A15090 [1]: 0.03 µg/mL (≈ 0.0188 µM); MIC (μg/mL) against Streptococcus pneumoniae A28272 [2]: 2.0 µg/mL (≈ 1.26 µM); MIC (μg/mL) against Enterococcus faecalis A20688 [3]: 1.0 µg/mL (≈ 0.628 µM)
C/C=C1\NC(=O)C(C(C)O)NC(=O)c2csc(n2)-c2cc(O)c(-c3nc(C(=O)NC(CN(C)CCCn4ccnc4)C(N)=O)cs3)nc2-c2csc(n2)C2CSC(=O)c3[nH]c4cccc(c4c3C)COC(=O)C(O)CC(NC(=O)c3csc1n3)c1nc(cs1)C(=O)N2 (stereo not drawn) [Example 101]				MIC ([1]; A15090, Mueller-Hinton medium, 35° C., 18 hours): 0.125 µg/mL (≈ 0.0918 µM); MIC ([2]; A28272, 50% Mueller-Hinton medium and 50% Todd Hewitt medium, 35° C., 18 hours): 0.003 µg/mL (≈ 0.0022 µM); MIC ([3]; A20688, Mueller-Hinton medium, 35° C., 18 hours): 0.125 µg/mL (≈ 0.0918 µM)
CO/C(C)=C1/NC(=O)C(C(C)O)NC(=O)c2csc(n2)-c2cc(O)c(-c3nc(C(=O)NC(CN4CCN(CCN(C)C)CC4)C(N)=O)cs3)nc2-c2csc(n2)C2COC(=O)c3c4c5c(cccc5n3O)COC(=O)C(O[C@H]3C[C@](C)(O)[C@H](N(C)C)[C@H](C)O3)C(OC4)C(NC(=O)c3csc1n3)c1nc(cs1)C(=O)N2 (stereo partly drawn) [Example 54]				MIC (μg/mL) against Staphylococcus aureus A15090 [1]: 0.5 µg/mL (≈ 0.314 µM); MIC (μg/mL) against Streptococcus pneumoniae A28272 [2]: 0.25 µg/mL (≈ 0.157 µM); MIC (μg/mL) against Enterococcus faecalis A20688 [3]: 0.125 µg/mL (≈ 0.0784 µM)
